The values that follow come from patent US20080255213A1, “THIAZOLIDINONE AMIDES, THIAZOLIDINE CARBOXYLIC ACID AMIDES, AND SERINE AMIDES, INCLUDING POLYAMINE CONJUGATES THEREOF, AS SELECTIVE ANTI-CANCER AGENTS” (University of Tennessee Research Foundation, priority 2007, published 2008).

Experiment [1] has as its system WM-164 melanoma cell line. Put plainly: Sulforhodamine B (SRB) cytotoxicity assay, WM-164. The class given is cell-based. Conditions: Homo sapiens, WM164, 48 h exposure, diastereomeric mixtures, value ± standard error, read-out: IC50 ± SEM WM-164 (converted). The protocol: (§1) Cytotoxicity of these newly synthesized compounds was examined in two human melanoma cell lines (SK-MEL-188 and WM-164) and in a fibroblast cell line. Activity on fibroblast cells was used as a control to determine the selectivity of these compounds against melanoma. Standard sulforhodamine B (SRB) assay was used. Cells were exposed to a wide range of concentrations for 48 h in round-bottom 96-well plates. Cells were fixed with 10% trichloroacetic acid and washed five times with water. After cells were air-dried overnight and stained with SRB solution, total proteins were measured at 560 nm with a plate reader. IC50 (i.e., concentration which inhibited cell growth by 50% of DMSO-treated controls) values were obtained by nonlinear regression analysis with GraphPad Prism (GraphPad Software, San Diego, Calif.).
(§2) The ability of thiazolidine derivatives to inhibit the growth of two melanoma cancer cell lines and fibroblast cells is summarized in Table 1. […] At this early stage, all compounds were used as a diastereomeric mixture if they contain chiral centers in order to select the most promising compounds for further development.

The subject of experiment [2] is melanoma cells. Put plainly: SRB cytotoxicity assay, statements not tied to one cell line. The class given is cell-based, human. Conditions: for potency/activity in words: melanoma cells and fibroblast cells. As to the method:
as §1, §2

In experiment [3] the test system is fibroblast cell line. Put plainly: Sulforhodamine B (SRB) cytotoxicity assay, fibroblast control. The format is cell-based. Conditions: 48 h exposure, control for selectivity, value ± standard error, read-out: IC50 ± SEM Fibroblast (converted). As to the method: as §1, §2
Experiment [4] concerns SK-MEL-188 melanoma cell line. Put plainly: Sulforhodamine B (SRB) cytotoxicity assay, SK-MEL-188. The format is cell-based. Conditions: Homo sapiens, 48 h exposure, diastereomeric mixtures, value ± standard error, read-out: IC50 ± SEM SK-MEL-188 (converted). As to the method:
as §1, §2

As to `CCCCCCCCC/C=C\CCCCCCCNC(=O)[C@@H]1CSC(c2ccc(NC(C)=O)cc2)N1` (stereo partly drawn) [Compound 320Z, (4R)-2-(4-acetamidophenyl)-N-((Z)-octadec-8-enyl)thiazolidine-4-carboxamide], the IC50 in experiment [1] is 1 µM; in experiment [3], 10.6 µM; in experiment [4] it was 1.4 µM. Moreover, the potency/activity in words result in experiment [2] is given as “restored potency dramatically”.

As for `CCCCCCCCCCNC(=O)[C@@H]1CSC(c2ccc3c(c2)OCO3)N1` (stereo partly drawn) [Compound 310, (4R)-2-(benzo[d][1,3]dioxol-5-yl)-N-decylthiazolidine-4-carboxamide], the IC50 was 4.5 µM in experiment [1], 8.2 µM in experiment [3] and 6.6 µM in experiment [4]. Also, the potency/activity in words entry in experiment [2] is “low potency”.

Consider `CCCCCCCCCCNC(=O)[C@@H]1CSC(c2ccc(OC)c(OC)c2)N1` (stereo partly drawn) [Compound 306, (4R)—N-decyl-2-(3,4-dimethoxyphenyl)thiazolidine-4-carboxamide], for which the IC50 in experiment [1] is 6.1 µM; in experiment [3] it was 6.3 µM; in experiment [4], 11.9 µM. In experiment [2], the potency/activity in words entry is recorded as “low potency”.

As to `CCCCCCCCCCCCCCNC(=O)[C@@H]1CSC(c2ccc(OC)c(OC)c2)=N1` [Compound 329, (R)-4,5-dihydro-2-(3,4-dimethoxyphenyl)-N-tetradecylthiazole-4-carboxamide], the concentration for half-maximal inhibition (IC50) in experiment [1] is 42.9 µM; in experiment [2] (Homo sapiens, summary over the cell lines, read-out: IC50 in the in vitro assay (cell line not given)) it was greater than 20 µM; in experiment [3] it was greater than 50 µM; in experiment [4], 19.1 µM.

As to `CNC(=O)c1cc(Oc2ccc(NC(=O)Nc3ccc(Cl)c(C(F)(F)F)c3)cc2)ccn1` [Sorafenib, reference compound], the IC50 in experiment [1] was 4.7 ± 0.3 µM; in experiment [3] it was greater than 100 µM; in experiment [4], 4.3 ± 0.2 µM. Besides, the “selectivity: ratio of IC50 values for fibroblast cells over melanoma cells” value in experiment [2] (fibroblast IC50 / melanoma IC50) is greater than 25. In addition, in experiment [2] (versus compound 317), the “potency against melanoma cells relative to compound 317 (times less potent)” value is “about 10 times”.
